Reference: US20130123201A1, “MODULATION OF CYTOKINE-INDUCED CHRONIC INFLAMMATORY RESPONSES” (UNIVERSITY OF MANITOBA, priority 2010, published 2013)

Key:
[1] = tested on: NF-κB subunits p50 and p65; assay: Translocation of NF-κB subunits p50 and p65 (nuclear extract immunoblots); assay type: cell-based, human; conditions: 20 ng/mL, 30 mins
Description: Translocation of NF-κB subunits p50 and p65: Nuclear extracts were prepared employing NE-PER® extraction reagents (Thermo Fisher Scientific, Toronto, ON, Canada) as per the manufacturer's instructions. In order to monitor direct NF-κB activation, equivalent nuclear extracts (5-8 μg) were resolved on 4-12% NuPAGE® Bis-Tris gels (Invitrogen Canada Inc.) and transferred to nitrocellulose membranes. The membranes were blocked with TBST containing 3% fish skin gelatin (Sigma-Aldrich), and probed with antibodies specific for either NE-κB subunit p50 or p65, in TBST containing 1% fish gelatin. The membranes were also probed with antibody to human histone protein HADC-1 to assess the equivalent protein loading. […]
The presence of common targets in macrophages was supported by the observation that both IL-32 and IL-17 induced similar level of IL-23 mRNA expression (FIG. 8A) and chemokine IL-8 production in human macrophage-like THP-1 cells (FIG. 7C). […] Therefore to further evaluate similarity of induced downstream response in synovial fibroblasts, this study analyzed the direct activation of transcription factor NF-κB. […] We also monitored the activity of NF-κB using a luminescence assay in-vitro employing rabbit synovial fibroblast cell line (HIG-82) in the presence of IL-32 and IL-17. The activation of NF-κB was monitored after 4 and 6 hr of treatment. […]

phospho-p300 (Ser1834) = assay: Immunoblot with phospho-p300 (Ser1834) antibody; assay type: cell-based, human; conditions: within 15 min, compared to un-stimulated cells
Description: Immunoblots: Cell lysates were prepared in lysis buffer containing 20 mM Tris-HCl pH 7.5, 150 mM NaCl, 1 mM EDTA, 1 mM EGTA, 1 mM sodium fluoride, 1 mM sodium orthovanadate, 2.5 mM sodium pyrophosphate, protease inhibitor cocktail (Sigma-Aldrich) and 1% (v/v) Triton X-100. The lysates were electrophoretically resolved on a 4-12% NuPAGE® Bis-Tris gels (Invitrogen Corporation, Burlington, ON, Canda), followed by transfer to nitrocellulose membranes (Millipore, Canada). The membranes were subsequently probed with either phospho-p300 (Ser1834) polyclonal antibody, monoclonal antibody against phospho-DAPK (Ser308) or monoclonal antibody to glyceraldehyde-3-phosphate dehydrogenase (GAPDH) in TBST (20 mM Tris pH 7.5, 150 mM NaCl, 0.1% Tween 20) containing 5% skimmed milk powder. Affinity purified HRP-linked horse anti-mouse or goat anti-rabbit antibodies were used for detection as required. The membranes were development with Amersham ECL detection system (GE Healthcare, Baie d'Urfe QC, Canada) according to the manufacturer's instructions.
Immunoblots: Cell lysates were prepared in lysis buffer containing 20 mM Tris-HCl pH 7.5, 150 mM NaCl, 1 mM EDTA, 1 mM EGTA, 1 mM sodium fluoride, 1 mM sodium orthovanadate, 2.5 mM sodium pyrophosphate, protease inhibitor cocktail (Sigma-Aldrich Canada Inc.) and 1% (v/v) Triton X-100. […]

IL-17: Recombinant human cytokine IL-17A/F from eBioscience, used as stimulant
Nuclear translocation of NF-κB p50 ([1]; FLS cells and macrophage-like THP-1 cells): mediated nuclear translocation
Nuclear translocation of NF-κB subunit p65 ([1]; FLS cells and macrophages): mediated
Phosphorylation of p300 (Ser1834) by immunoblot (phospho-p300 (Ser1834)): increased phosphorylation
